This is an account of results in US10772893B2, “2-(morpholin-4-yl)-1,7-naphthyridines” (BAYER PHARMA AKTIENGESELLSCHAFT, priority 2014, dated 2020).

Like-named read-outs stand apart in the source and are kept apart here. Bounds are passed on as bounds.

In one experiment the target is human ATR (Homo sapiens (Human), UniProt Q13535). The experiment can be described thus: ATR binding assay (TR-FRET, displacement of fluorescent tracer A or B).
Another experiment concerns HeLa-MaTu-ADR cells. Briefly: Proliferation assay, crystal violet staining. The format is cell-based. As to conditions: Homo sapiens, 96 h, 4 days incubation, read-out: Inhibition of HeLa-MaTu-ADR cell proliferation.
In a further experiment the test system is Caco-2 cells. The experiment can be described thus: Proliferation assay, crystal violet staining. Format: cell-based. As to conditions: Homo sapiens, Caco-2, 96 h, 4 days incubation, read-out: Inhibition of Caco-2 cell proliferation.
The next experiment has as its system HeLa cells. The experiment can be described thus: Proliferation assay, crystal violet staining. As to conditions: Homo sapiens, 96 h.
Another experiment relates to DU145 cells. Briefly: Proliferation assay, crystal violet staining. The conditions noted are these: Homo sapiens, DU-145, 96 h, read-out: Inhibition of DU145 cell proliferation, DU145 cells, 4 days incubation.
A further experiment concerns B16F10 cells. The experiment can be described thus: Proliferation assay, crystal violet staining. The conditions noted are these: B16-F10, 96 h, read-out: Inhibition of B16F10 cell proliferation.
Another experiment deals with NCI-H460 cells. Briefly: Proliferation assay, crystal violet staining. As to conditions: Homo sapiens, NCI-H460, 96 h, read-out: Inhibition of NCI-H460 cell proliferation, NCI-H460 cells, 4 days incubation.
The mark [1] stands for this setting: read-out: Inhibition of HeLa cell proliferation, HeLa cells, 4 days incubation.

Chain of human ATR (Q13535 other isoform, or with tags, fused parts or gaps): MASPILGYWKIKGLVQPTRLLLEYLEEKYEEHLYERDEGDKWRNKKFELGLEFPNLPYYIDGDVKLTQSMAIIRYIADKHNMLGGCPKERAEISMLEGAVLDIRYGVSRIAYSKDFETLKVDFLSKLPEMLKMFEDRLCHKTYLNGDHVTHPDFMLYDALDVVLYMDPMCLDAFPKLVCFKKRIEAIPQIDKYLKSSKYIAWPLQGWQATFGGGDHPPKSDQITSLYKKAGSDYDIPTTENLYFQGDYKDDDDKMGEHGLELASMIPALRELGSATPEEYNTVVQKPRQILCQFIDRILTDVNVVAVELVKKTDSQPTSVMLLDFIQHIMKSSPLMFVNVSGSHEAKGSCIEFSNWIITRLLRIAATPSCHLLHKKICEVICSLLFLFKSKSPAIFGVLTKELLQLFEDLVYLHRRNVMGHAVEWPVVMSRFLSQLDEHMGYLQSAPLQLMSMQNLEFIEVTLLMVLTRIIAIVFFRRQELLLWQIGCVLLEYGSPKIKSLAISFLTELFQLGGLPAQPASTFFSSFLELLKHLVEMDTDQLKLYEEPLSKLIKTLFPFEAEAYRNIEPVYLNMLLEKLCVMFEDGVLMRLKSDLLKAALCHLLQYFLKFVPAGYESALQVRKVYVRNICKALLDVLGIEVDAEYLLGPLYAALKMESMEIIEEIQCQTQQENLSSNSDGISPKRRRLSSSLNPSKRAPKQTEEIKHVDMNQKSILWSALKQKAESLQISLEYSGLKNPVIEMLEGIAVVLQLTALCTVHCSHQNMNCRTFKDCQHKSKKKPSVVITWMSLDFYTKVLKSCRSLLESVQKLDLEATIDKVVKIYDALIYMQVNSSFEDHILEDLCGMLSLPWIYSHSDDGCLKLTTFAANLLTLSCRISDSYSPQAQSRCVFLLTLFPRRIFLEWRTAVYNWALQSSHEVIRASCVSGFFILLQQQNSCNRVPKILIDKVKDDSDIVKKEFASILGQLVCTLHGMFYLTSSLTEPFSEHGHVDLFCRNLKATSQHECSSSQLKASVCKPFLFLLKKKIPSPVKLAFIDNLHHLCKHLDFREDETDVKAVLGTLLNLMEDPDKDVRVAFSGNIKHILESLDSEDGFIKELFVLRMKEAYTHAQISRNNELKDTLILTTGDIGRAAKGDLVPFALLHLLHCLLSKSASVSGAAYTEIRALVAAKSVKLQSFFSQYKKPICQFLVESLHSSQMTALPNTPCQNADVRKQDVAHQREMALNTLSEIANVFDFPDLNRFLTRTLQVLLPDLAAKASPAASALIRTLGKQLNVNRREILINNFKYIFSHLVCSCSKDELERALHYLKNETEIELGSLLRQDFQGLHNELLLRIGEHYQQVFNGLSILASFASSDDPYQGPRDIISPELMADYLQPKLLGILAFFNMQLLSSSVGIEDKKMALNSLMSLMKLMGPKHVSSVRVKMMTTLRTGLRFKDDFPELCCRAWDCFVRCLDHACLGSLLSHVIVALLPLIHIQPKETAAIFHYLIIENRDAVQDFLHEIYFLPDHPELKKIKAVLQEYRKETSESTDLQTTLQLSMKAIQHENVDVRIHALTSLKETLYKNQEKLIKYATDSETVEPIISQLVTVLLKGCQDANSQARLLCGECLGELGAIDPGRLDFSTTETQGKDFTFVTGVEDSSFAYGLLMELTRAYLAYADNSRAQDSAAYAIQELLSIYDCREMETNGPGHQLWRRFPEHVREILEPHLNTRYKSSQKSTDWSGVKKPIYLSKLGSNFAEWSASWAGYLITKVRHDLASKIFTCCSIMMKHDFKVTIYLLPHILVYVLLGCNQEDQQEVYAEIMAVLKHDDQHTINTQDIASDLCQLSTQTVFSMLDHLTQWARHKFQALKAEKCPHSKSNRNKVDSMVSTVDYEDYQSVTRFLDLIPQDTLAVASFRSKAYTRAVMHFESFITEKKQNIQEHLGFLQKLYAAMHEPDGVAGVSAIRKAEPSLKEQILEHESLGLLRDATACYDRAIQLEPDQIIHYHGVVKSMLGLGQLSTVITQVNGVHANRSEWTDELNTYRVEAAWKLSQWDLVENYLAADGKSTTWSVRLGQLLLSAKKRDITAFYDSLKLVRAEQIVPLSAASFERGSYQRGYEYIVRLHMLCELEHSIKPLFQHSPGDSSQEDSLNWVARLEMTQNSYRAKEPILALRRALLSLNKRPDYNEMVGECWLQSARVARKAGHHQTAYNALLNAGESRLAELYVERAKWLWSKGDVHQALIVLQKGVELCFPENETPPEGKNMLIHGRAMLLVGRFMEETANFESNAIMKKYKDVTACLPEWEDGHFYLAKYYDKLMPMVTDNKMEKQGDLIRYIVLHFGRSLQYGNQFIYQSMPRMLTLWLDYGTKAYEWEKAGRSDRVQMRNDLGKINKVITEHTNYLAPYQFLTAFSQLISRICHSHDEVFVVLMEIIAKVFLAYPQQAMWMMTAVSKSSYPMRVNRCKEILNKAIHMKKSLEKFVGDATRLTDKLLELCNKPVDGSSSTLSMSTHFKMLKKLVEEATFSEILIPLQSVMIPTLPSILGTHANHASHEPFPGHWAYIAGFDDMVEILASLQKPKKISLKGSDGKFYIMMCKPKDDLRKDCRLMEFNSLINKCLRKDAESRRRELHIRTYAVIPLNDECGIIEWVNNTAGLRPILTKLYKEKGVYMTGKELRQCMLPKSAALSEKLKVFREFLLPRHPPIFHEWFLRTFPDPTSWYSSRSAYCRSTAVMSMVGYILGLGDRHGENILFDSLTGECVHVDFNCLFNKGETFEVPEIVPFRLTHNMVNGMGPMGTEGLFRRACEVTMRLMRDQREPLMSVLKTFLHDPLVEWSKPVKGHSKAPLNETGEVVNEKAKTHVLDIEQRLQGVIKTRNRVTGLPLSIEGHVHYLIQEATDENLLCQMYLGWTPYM
Chain of human ATR (Q8WXE1 other isoform, or with tags, fused parts or gaps partner): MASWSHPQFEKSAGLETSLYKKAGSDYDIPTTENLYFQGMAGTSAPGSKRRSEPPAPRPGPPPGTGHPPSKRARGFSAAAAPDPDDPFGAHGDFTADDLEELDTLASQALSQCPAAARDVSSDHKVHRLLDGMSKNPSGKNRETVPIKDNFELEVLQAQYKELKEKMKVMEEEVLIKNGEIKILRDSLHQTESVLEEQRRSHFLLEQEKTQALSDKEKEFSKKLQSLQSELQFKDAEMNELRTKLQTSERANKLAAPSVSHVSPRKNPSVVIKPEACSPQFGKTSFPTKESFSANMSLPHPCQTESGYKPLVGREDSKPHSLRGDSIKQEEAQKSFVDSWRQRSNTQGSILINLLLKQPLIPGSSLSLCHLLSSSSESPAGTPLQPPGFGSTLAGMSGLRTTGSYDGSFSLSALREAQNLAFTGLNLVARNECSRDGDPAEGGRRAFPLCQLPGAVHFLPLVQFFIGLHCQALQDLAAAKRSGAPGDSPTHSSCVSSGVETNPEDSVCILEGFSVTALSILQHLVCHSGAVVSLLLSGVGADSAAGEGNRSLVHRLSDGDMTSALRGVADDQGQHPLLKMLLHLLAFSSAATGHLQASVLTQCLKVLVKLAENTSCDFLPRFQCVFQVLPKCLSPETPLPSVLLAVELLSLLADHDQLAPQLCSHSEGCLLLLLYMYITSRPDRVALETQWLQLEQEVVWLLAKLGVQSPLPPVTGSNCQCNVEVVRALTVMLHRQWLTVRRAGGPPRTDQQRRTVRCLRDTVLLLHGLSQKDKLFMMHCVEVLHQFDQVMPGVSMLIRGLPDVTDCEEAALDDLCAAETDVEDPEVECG
Description for B16F10 cells: Human tumour cells (Table 8) were originally obtained from the American Type Culture Collection (ATCC), the Deutsche Sammlung von Mikroorganismen and Zellkulturen (DSMZ, German Collection of Microorganisms and Cell Cultures), or Epo GmbH Berlin. […] After 24 hours, the cells of one plate (zero plate) were dyed with crystal violet (see below), whereas the medium of the other plates was replaced with fresh culture medium (200 μl) to which the test substances were added in various concentrations (0 μM, and also in the range of 0.001-10 μM; the final concentration of the solvent dimethyl sulphoxide was 0.1 or 0.5%). The cells were incubated for 4 days in the presence of the test substances. […] After washing the fixed cells three times with water, the plates were dried at room temperature. The cells were stained by adding 100 μl/measurement point of a 0.1% strength crystal violet solution (pH adjusted to pH 3 by adding acetic acid). After washing the cells three times with water, the plates were dried at room temperature. The dye was dissolved by adding 100 μl/measurement point of a 10% strength acetic acid solution. […] The percentage change in cell growth was calculated by normalizing the measured values to the absorbance values of the zero plate (=0%) and the absorbance of the untreated (0 W) cells (=100%). The IC50 values were determined by means of a four parameter fit.
Description for Caco-2 cells: (§1) After 24 hours, the cells of one plate (zero plate) were dyed with crystal violet (see below), whereas the medium of the other plates was replaced with fresh culture medium (200 μl) to which the test substances were added in various concentrations (0 μM, and also in the range of 0.001-10 μM; the final concentration of the solvent dimethyl sulphoxide was 0.1 or 0.5%). The cells were incubated for 4 days in the presence of the test substances. […] After washing the fixed cells three times with water, the plates were dried at room temperature. The cells were stained by adding 100 μl/measurement point of a 0.1% strength crystal violet solution (pH adjusted to pH 3 by adding acetic acid). After washing the cells three times with water, the plates were dried at room temperature. The dye was dissolved by adding 100 μl/measurement point of a 10% strength acetic acid solution. […] The percentage change in cell growth was calculated by normalizing the measured values to the absorbance values of the zero plate (=0%) and the absorbance of the untreated (0 W) cells (=100%). The IC50 values were determined by means of a four parameter fit.
Description for DU145 cells: as §1
Description for HeLa-MaTu-ADR cells: as §1
Description for NCI-H460 cells: as §1
Excerpt for human ATR: To determine of binding activity of the test compounds, full-length human ATR protein was expressed and purified together with ATRIP as described above. Furthermore, a fluorescently labelled compound (either tracer A or B as described above) was used as a tracer molecule. Detection of the binding event of the tracer was achieved by time-resolved fluorescence energy transfer (TR-FRET). We used an anti-GST-Terbium antibody (CisBio) that binds to the GST-tag at the N-terminus of ATR-kinase. […] Displacement of the fluorescent tracer by a test compound leads to a reduction of the TR-FRET-signal.
For the assay 50 nl of a 100-fold concentrated solution of the test compound in DMSO was pipetted into a black low volume 384 well microtiter plate (MTP, Greiner Bio-One, Frickenhausen, Germany). […] The ATR-working solution was incubated for 30 min at 22° C. prior to dispensing to pre-form the complex of antiGST-Tb+GST-ATR+ATRIP. Then, 3 μl of the ATR-working solution were added to the test compound and the mixture was incubated for 10 min at 22° C. to allow pre-binding of the test compounds to ATR/ATRIP. Then, 2 μl of a 100 nM solution of either tracer A or B in assay buffer were added to the ATR-working solution. The resulting mixture was incubated for 30 min at 22° C. […] IC50 values were calculated by a 4 parameter fit using standard software (GraphPad prism or equivalent).

In the case of `CC1(C)C[C@@H]2C[C@@](C)(CN2c2cc(N3CCOCC3)nc3c(-c4ccn[nH]4)nccc23)C1` (stereo in doubt) [Example 421, 2-(morpholin-4-yl)-8-(1H-pyrazol-5-yl)-4-[1,3,3-trimethyl-6-azabicyclo[3.2.1]oct-6-yl]-1,7-naphthyridine], at human ATR, the IC50 was determined as 1790 nM.

As to `CCOP(C)(=O)c1cc(N2CCOC[C@H]2C)nc2c(-c3ccn[nH]3)nccc12` (stereo partly drawn) [Example 125, ethyl methyl{2-[(3R)-3-methylmorpholin-4-yl]-8-(1H-pyrazol-5-yl)-1,7-naphthyridin-4-yl}phosphinate], the IC50 with HeLa-MaTu-ADR cells was > 3000 nM; with Caco-2 cells it was > 3000 nM; in the experiment with HeLa cells (read-out: Inhibition of HeLa cell proliferation), 705 nM; with DU145 cells, 712 nM; in the experiment on B16F10 cells, > 3000 nM.

As to `COc1ncccc1-c1cc(N2CCOC[C@H]2C)nc2c(-c3ccn[nH]3)nccc12` [Example 220, 4-(2-methoxypyridin-3-yl)-2-[(3R)-3-methylmorpholin-4-yl]-8-(1H-pyrazol-5-yl)-1,7-naphthyridine], the IC50 in the experiment with HeLa-MaTu-ADR cells was 993 nM; in the experiment with Caco-2 cells, > 1000 nM; with HeLa cells (setting [1]) it was 604 nM; with NCI-H460 cells, 303 nM; in the experiment on DU145 cells it was 334 nM.

With `C[C@@H]1COCCN1c1cc(-c2ccc(F)nc2F)c2ccnc(-c3ccn[nH]3)c2n1` [Example 228, 4-(2,6-difluoropyridin-3-yl)-2-[(3R)-3-methylmorpholin-4-yl]-8-(1H-pyrazol-5-yl)-1,7-naphthyridine], the IC50 with HeLa-MaTu-ADR cells came to 594 nM; in the experiment with Caco-2 cells, 637 nM; in the experiment with HeLa cells (setting [1]), 225 nM; in the experiment with NCI-H460 cells, 233 nM; in the experiment with DU145 cells, 313 nM.

Take `CC(C)S(=O)(=Nc1cc(N2CCOC[C@H]2C)nc2c(-c3ccn[nH]3)nccc12)c1ccc(Br)cc1` (stereo partly drawn) [Example 275]: on human ATR, the IC50 was 304 nM.

Regarding `C[C@@H]1COCCN1c1cc(C2(S(C)(=O)=O)CC2)c2ccnc(-c3ccn[nH]3)c2n1` [Example 286, 2-[(3R)-3-methylmorpholin-4-yl]-4-[1-(methylsulfonyl)cyclopropyl]-8-(1H-pyrazol-5-yl)-1,7-naphthyridine], the IC50 came out at 882 nM in the experiment on HeLa-MaTu-ADR cells; 529 nM in the experiment on Caco-2 cells; 293 nM with HeLa cells (setting [1]); 75.6 nM in the experiment with NCI-H460 cells; 48.6 nM in the experiment on DU145 cells.

As for `Cn1nccc1-c1cc(N2CCOCC2)nc2c(-c3ccn[nH]3)nccc12` [Example 348, 4-(1-methyl-1H-pyrazol-5-yl)-2-(morpholin-4-yl)-8-(1H-pyrazol-5-yl)-1,7-naphthyridine], the IC50 came to 940 nM with HeLa-MaTu-ADR cells; 822 nM in the experiment on Caco-2 cells; 613 nM in the experiment on HeLa cells (setting [1]); 399 nM with NCI-H460 cells; 518 nM with DU145 cells.
